Laboratory results published in patent US11116735B2, “Use of substituted benzylideneguanidine derivatives as synergists for polymyxin antibiotics” (GUANGZHOU INSIGHTER BIOTECHNOLOGY CO., LTD., priority 2015, dated 2021).

Key:
E. coli 3Y-9 = assay: MIC by doubling dilution, colistin sulfate-susceptible E. coli 3Y-9; assay type: cell-based, Escherichia coli; details: for In vitro minimum inhibitory concentration (MIC) of the substance alone: E. coli 3Y-9, colistin sulfate-susceptible, derivatives as hydrochlorides; for In vitro MIC of colistin sulfate in the presence of the substituted benzylideneguanidine derivative: E. coli 3Y-9, culture comprised 20.0 ppm of the derivative (hydrochloride), colistin sulfate serially diluted
E. coli 2G-7 = assay: MIC by doubling dilution, colistin sulfate-resistant E. coli 2G-7; details: for In vitro minimum inhibitory concentration (MIC) of the substance alone: E. coli 2G-7, colistin sulfate-resistant, derivatives as hydrochlorides; for In vitro MIC of colistin sulfate in the presence of the substituted benzylideneguanidine derivative: E. coli 2G-7, resistant, culture comprised 20.0 ppm of the derivative (hydrochloride)
E. coli 3B-24 = assay: MIC by doubling dilution, colistin sulfate-susceptible E. coli 3B-24; assay type: cell-based, Escherichia coli; details: for In vitro minimum inhibitory concentration (MIC) of the substance alone: E. coli 3B-24, colistin sulfate-susceptible, derivatives as hydrochlorides; for In vitro MIC of colistin sulfate in the presence of the substituted benzylideneguanidine derivative: E. coli 3B-24, culture comprised 20.0 ppm of the derivative (hydrochloride), colistin sulfate serially diluted
E. coli 5W-7 = assay: MIC by doubling dilution, colistin sulfate-susceptible E. coli 5W-7; assay type: cell-based, Escherichia coli; details: for In vitro minimum inhibitory concentration (MIC) of the substance alone: E. coli 5W-7, colistin sulfate-susceptible, derivatives as hydrochlorides; for In vitro MIC of colistin sulfate in the presence of the substituted benzylideneguanidine derivative: E. coli 5W-7, culture comprised 20.0 ppm of the derivative (hydrochloride), colistin sulfate serially diluted
E. coli 4D-6 = assay: MIC by doubling dilution, colistin sulfate-resistant E. coli 4D-6; details: for In vitro minimum inhibitory concentration (MIC) of the substance alone: E. coli 4D-6, colistin sulfate-resistant, derivatives as hydrochlorides; for In vitro MIC of colistin sulfate in the presence of the substituted benzylideneguanidine derivative: E. coli 4D-6, resistant, culture comprised 20.0 ppm of the derivative (hydrochloride)
E. coli 3H-4 = assay: MIC by doubling dilution, colistin sulfate-resistant E. coli 3H-4; details: for In vitro minimum inhibitory concentration (MIC) of the substance alone: E. coli 3H-4, colistin sulfate-resistant, derivatives as hydrochlorides; for In vitro MIC of colistin sulfate in the presence of the substituted benzylideneguanidine derivative: E. coli 3H-4, resistant, culture comprised 20.0 ppm of the derivative (hydrochloride)
E. coli 5F-1 = assay: MIC by doubling dilution, colistin sulfate-resistant E. coli 5F-1; details: for In vitro minimum inhibitory concentration (MIC) of the substance alone: E. coli 5F-1, colistin sulfate-resistant, derivatives as hydrochlorides; for In vitro MIC of colistin sulfate in the presence of the substituted benzylideneguanidine derivative: E. coli 5F-1, resistant, culture comprised 20.0 ppm of the derivative (hydrochloride)
E. coli 2S-19 = assay: MIC by doubling dilution, colistin sulfate-susceptible E. coli 2S-19; assay type: cell-based, Escherichia coli; details: for In vitro minimum inhibitory concentration (MIC) of the substance alone: E. coli 2S-19, colistin sulfate-susceptible, derivatives as hydrochlorides; for In vitro MIC of colistin sulfate in the presence of the substituted benzylideneguanidine derivative: E. coli 2S-19, culture comprised 20.0 ppm of the derivative (hydrochloride), colistin sulfate serially diluted

SMILES	In vitro minimum inhibitory concentration (MIC) of the substance alone (E. coli 3Y-9)	In vitro MIC of colistin sulfate in the presence of the substituted benzylideneguanidine derivative (E. coli 3Y-9)	In vitro minimum inhibitory concentration (MIC) of the substance alone (E. coli 2G-7)	In vitro MIC of colistin sulfate in the presence of the substituted benzylideneguanidine derivative (E. coli 2G-7)	In vitro minimum inhibitory concentration (MIC) of the substance alone (E. coli 3B-24)	In vitro MIC of colistin sulfate in the presence of the substituted benzylideneguanidine derivative (E. coli 3B-24)	In vitro minimum inhibitory concentration (MIC) of the substance alone (E. coli 5W-7)	In vitro MIC of colistin sulfate in the presence of the substituted benzylideneguanidine derivative (E. coli 5W-7)	In vitro minimum inhibitory concentration (MIC) of the substance alone (E. coli 4D-6)	In vitro MIC of colistin sulfate in the presence of the substituted benzylideneguanidine derivative (E. coli 4D-6)	In vitro minimum inhibitory concentration (MIC) of the substance alone (E. coli 3H-4)	In vitro MIC of colistin sulfate in the presence of the substituted benzylideneguanidine derivative (E. coli 3H-4)	In vitro minimum inhibitory concentration (MIC) of the substance alone (E. coli 5F-1)	In vitro MIC of colistin sulfate in the presence of the substituted benzylideneguanidine derivative (E. coli 5F-1)	In vitro minimum inhibitory concentration (MIC) of the substance alone (E. coli 2S-19)	In vitro MIC of colistin sulfate in the presence of the substituted benzylideneguanidine derivative (E. coli 2S-19)
NC(=NN=Cc1ccc(C(F)(F)F)cc1)NN=Cc1ccc(C(F)(F)F)cc1 [Compound 14]	>800 ppm	1.00 ppm	>800 ppm	16 ppm	>800 ppm	1.00 ppm	>800 ppm	0.50 ppm	>800 ppm	32 ppm	>800 ppm	8 ppm	>800 ppm	32 ppm	>800 ppm	1.00 ppm
COC(=O)c1ccc(C=NN=C(N)NN=Cc2ccc(C(=O)OC)cc2)cc1 [Compound 12]	>800 ppm	1.00 ppm	>800 ppm	4 ppm	>800 ppm	1.00 ppm	>800 ppm	0.50 ppm	>800 ppm	16 ppm	>800 ppm	4 ppm	>800 ppm	8 ppm	>800 ppm	1.00 ppm
N#Cc1ccc(C=NN=C(N)NN=Cc2ccc(C#N)cc2)cc1 [Compound 13]	>800 ppm	1.00 ppm	>800 ppm	4 ppm	>800 ppm	0.50 ppm	>800 ppm	0.50 ppm	>800 ppm	16 ppm	>800 ppm	4 ppm	>800 ppm	8 ppm	>800 ppm	1.00 ppm

Continued, values first:

In vitro minimum inhibitory concentration (MIC) of the substance alone (E. coli 3Y-9)	In vitro MIC of colistin sulfate in the presence of the substituted benzylideneguanidine derivative (E. coli 3Y-9)	In vitro minimum inhibitory concentration (MIC) of the substance alone (E. coli 2G-7)	In vitro MIC of colistin sulfate in the presence of the substituted benzylideneguanidine derivative (E. coli 2G-7)	In vitro minimum inhibitory concentration (MIC) of the substance alone (E. coli 3B-24)	In vitro MIC of colistin sulfate in the presence of the substituted benzylideneguanidine derivative (E. coli 3B-24)	In vitro minimum inhibitory concentration (MIC) of the substance alone (E. coli 5W-7)	In vitro MIC of colistin sulfate in the presence of the substituted benzylideneguanidine derivative (E. coli 5W-7)	In vitro minimum inhibitory concentration (MIC) of the substance alone (E. coli 4D-6)	In vitro MIC of colistin sulfate in the presence of the substituted benzylideneguanidine derivative (E. coli 4D-6)	In vitro minimum inhibitory concentration (MIC) of the substance alone (E. coli 3H-4)	In vitro MIC of colistin sulfate in the presence of the substituted benzylideneguanidine derivative (E. coli 3H-4)	In vitro minimum inhibitory concentration (MIC) of the substance alone (E. coli 5F-1)	In vitro MIC of colistin sulfate in the presence of the substituted benzylideneguanidine derivative (E. coli 5F-1)	In vitro minimum inhibitory concentration (MIC) of the substance alone (E. coli 2S-19)	In vitro MIC of colistin sulfate in the presence of the substituted benzylideneguanidine derivative (E. coli 2S-19)	SMILES
>800 ppm	1.00 ppm	>800 ppm	4 ppm	>800 ppm	1.00 ppm	>800 ppm	0.50 ppm	>800 ppm	16 ppm	>800 ppm	4 ppm	>800 ppm	8 ppm	>800 ppm	1.00 ppm	CCSc1ccc(C=NNC(=N)NN=Cc2ccc(SCC)cc2)cc1 [Compound 9]
>800 ppm	2.00 ppm	>800 ppm	8 ppm	>800 ppm	1.00 ppm	>800 ppm	0.50 ppm	>800 ppm	32 ppm	>800 ppm	8 ppm	>800 ppm	16 ppm	>800 ppm	1.00 ppm	N=C(NN=Cc1ccc(OC(F)(F)F)cc1)NN=Cc1ccc(OC(F)(F)F)cc1 [Compound 16]
>800 ppm	1.00 ppm	>800 ppm	4 ppm	>800 ppm	1.00 ppm	>800 ppm	0.50 ppm	>800 ppm	16 ppm	>800 ppm	4 ppm	>800 ppm	8 ppm	>800 ppm	1.00 ppm	Cc1ccc(C=NN=C(N)NN=Cc2ccc(C)cc2)cc1 [Compound 10]
